Among the data in article PMC2942994 (Biochemical pharmacology, 2010) are Ki values, retold here.

For one test, the target named is hSERT V367I (Homo sapiens, UniProt P31645, V367I). As to the kind of experiment: cell-based. Set-up: species or system HEK-293, transiently transfected.
In test [1] the target is hSERT (human serotonin transporter) (Homo sapiens, UniProt P31645, M370L). In words: cell-based. Set-up: species or system HEK-293, transiently transfected.
Chain of hSERT (human serotonin transporter) (P31645 whole entry M370L): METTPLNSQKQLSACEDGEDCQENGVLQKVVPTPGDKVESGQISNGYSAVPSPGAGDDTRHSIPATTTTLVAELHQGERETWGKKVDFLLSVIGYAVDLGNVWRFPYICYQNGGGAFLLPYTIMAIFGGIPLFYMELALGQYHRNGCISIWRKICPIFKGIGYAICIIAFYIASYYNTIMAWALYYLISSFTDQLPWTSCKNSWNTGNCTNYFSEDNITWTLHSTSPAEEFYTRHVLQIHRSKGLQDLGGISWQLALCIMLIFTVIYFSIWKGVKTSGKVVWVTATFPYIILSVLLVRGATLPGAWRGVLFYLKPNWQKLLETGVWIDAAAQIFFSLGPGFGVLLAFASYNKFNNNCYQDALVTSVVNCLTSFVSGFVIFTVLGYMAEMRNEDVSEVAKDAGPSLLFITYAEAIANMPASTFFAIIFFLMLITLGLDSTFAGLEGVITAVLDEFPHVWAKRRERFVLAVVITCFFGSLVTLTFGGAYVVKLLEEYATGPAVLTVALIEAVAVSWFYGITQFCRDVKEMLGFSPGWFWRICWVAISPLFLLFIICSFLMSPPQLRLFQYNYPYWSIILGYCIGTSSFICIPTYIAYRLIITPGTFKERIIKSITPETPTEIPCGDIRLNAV

Chain of hSERT V367I (P31645 whole entry V367I): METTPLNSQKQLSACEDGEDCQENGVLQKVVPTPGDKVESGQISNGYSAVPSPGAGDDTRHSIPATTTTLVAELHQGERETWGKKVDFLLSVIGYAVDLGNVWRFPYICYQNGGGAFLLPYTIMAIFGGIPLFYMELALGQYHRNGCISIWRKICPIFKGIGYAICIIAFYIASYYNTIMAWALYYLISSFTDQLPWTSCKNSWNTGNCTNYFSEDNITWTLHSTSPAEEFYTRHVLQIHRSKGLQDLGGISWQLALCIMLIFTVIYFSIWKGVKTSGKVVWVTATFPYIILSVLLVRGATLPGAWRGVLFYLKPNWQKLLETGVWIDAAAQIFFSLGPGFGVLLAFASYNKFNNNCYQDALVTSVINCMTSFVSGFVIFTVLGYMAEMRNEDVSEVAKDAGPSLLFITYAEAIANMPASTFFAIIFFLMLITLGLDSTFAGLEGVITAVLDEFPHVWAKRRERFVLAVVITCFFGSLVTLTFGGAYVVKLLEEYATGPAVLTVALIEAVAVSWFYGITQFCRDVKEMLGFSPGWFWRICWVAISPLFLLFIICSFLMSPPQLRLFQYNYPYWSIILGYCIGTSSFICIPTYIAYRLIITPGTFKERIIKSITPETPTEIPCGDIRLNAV

Consider `COC(=O)[C@H]1[C@@H](c2ccc(I)cc2)C[C@@H]2CC[C@H]1N2C` [RTI-55], for which the Ki at hSERT V367I is 16 ± 6 nM; in test [1], 16 ± 2 nM.

One may read the Ki as the dissociation constant of the complex between target and ligand, obtained from inhibition or displacement.
